Where no end group is shown, it is not given here. [ ]: non-standard residue; d: D form. Dopa = N[C@@H](Cc1ccc(O)c(O)c1)C(=O)O; Cya = N[C@@H](CS(=O)(=O)O)C(=O)O
Tests used:
CD8+ T-cells (PBMCs) = assay: In vitro peptide stimulation and T-cell proliferation assay, CD8+; type: cell-based, human
From the text: (§1) In vitro peptide stimulation and T-cell proliferation assay. Peripheral blood mononuclear cells (PBMCs) were freshly isolated from type 1 diabetes and healthy individuals using Ficoll-Hypaque density gradient centrifugation. PBMCs were labelled with the fluorescent dye CellTrace Violet (Invitrogen, Thermo Fisher Scientific) and cultured (2×10^5 cells/well) in round-bottom 96-well plates (Falcon, Becton Dickinson) with RPMI-1640 medium (Gibco, Thermo Fisher Scientific) supplemented with 5% autologous plasma in the presence or not of insulin peptides (20 μg/ml); PPD (10 μg/ml) and anti-CD3 (0.1 μg/ml; clone OKT3) were used as positive control. Two scrambled peptides: […] (SEQ ID NO: 17), […] (SEQ ID NO: 18), and the Exendin 9-39 fragment were used as negative controls. After 7 days, PBMCs were stained with PE-Cy7 anti-CD8 (clone RPA-T8, BD Pharmingen) and FITC anti-CD3 (clone UCHT1, BD Pharmingen). Samples were analysed by using a FACSCanto II (BD Bioscience) to evaluate T-cell proliferation measured as CellTrace Violet dilution. Cytofluorimetric analyses were performed using FlowJo Software (FlowJo, LLC). The results were given as stimulation index (SI), calculated as percentage of stimulated T-cell subset proliferation/percentage of unstimulated T-cell subset proliferation. Assay for detection of peptide specific T cells subsets was done as previously described (detailed in ESM methods, Assay for detection of peptide specific T cells)
(§2) T-cell stimulation with oxPTM-INSPs. To evaluate the immune cell response against the oxPTM-INSPs, we performed CD4+ and CD8+ T cells proliferation experiments using freshly isolated PBMCs (Study cohort 2, Table 1). Response was calculated as stimulatory index (SI) over unstimulated T-cells.

CD4+ T-cells (PBMCs) = assay: In vitro peptide stimulation and T-cell proliferation assay, CD4+; type: cell-based, human
From the text: as §1, §2

serum IgG autoantibodies = assay: ELISA for autoantibody detection: serum antibody binding to native and oxPTM insulin peptides; parameters: species or system human; conditions: in silico modifications; for % binders, Healthy controls / Mean ± SEM (absorbance, OD), Healthy controls / % binders, Type 1 diabetes: Study cohort 1; for % binders, Type 1 diabetes: cut-off = mean of healthy controls to Nt-INSP plus 3 SEM; for Mean ± SEM (absorbance, OD), Type 1 diabetes: Study cohort 1 sera
Procedure: ELISA for autoantibody detection. The ELISA analysis of Nt-INS and oxPTM-INS autoantibodies was performed as previously described [18](detailed in ESM methods, ELISA assay for antibody detection).
Statistical analyses. Statistical analyses were performed using Prism Software 9.0 (GraphPad, San Diego, CA, USA). Cut-off points of positivity (binders) in the antibody ELISA for each peptide were defined by the mean of optical absorbance (O.D) of healthy controls to the corresponding Nt-INSP plus three times the standard error of the mean (SEM). Specificity and sensitivity were evaluated by receiver operating characteristic (ROC) curve analysis. Area under the curve (AUC) is reported as absolute value and was tested for equality according to DeLong et al. Differences in antibody levels and T-cell stimulation indices (SI) between groups were tested by the One way ANOVA or Student's t-tests as appropriate. Correlation analyses were tested by Pearson or Spearman's test, as appropriate. Categorical analyses were performed by Chi-square or McNemar's tests, as appropriate. For each set of experiments, p values were adjusted for multiple comparison using the Holm-Sidak's test. Hierarchical cluster and Principal Component Analysis (PCA) was done using Clustvis software (https://biit.cs.ut.ee/clustvis/) and Prism Software 9.0, respectively.
Antibody reactivity of type 1 diabetes serum against the candidate oxPTM-INSP. Identified peptide candidates were synthesised and exposed to either HOCl or ^●OH to generate oxPTM-INSPs that were first assessed by TOF-MS/ES+TIC to confirm modification (FIG. 17). Antibody response against native INSPs (Nt-INSPs) and oxPTM-INSPs was evaluated by ELISA using sera from Study cohort 1.
ESM Methods ELISA assay for antibody detection. The ELISA analysis of native (Nt-INS) and modified insulin (oxPTM-INS) was performed as previously described. Briefly, the ELISA plate was coated overnight at 4° C. with 100 μl per well of modified or native insulin in 0.05 M carbonate/bicarbonate buffer pH 9.6 at 10 μg/ml. The next day, the plates were washed 3 times with 0.1% Tween PBS, followed by blocking for 2 hours at room temperature with 200 μl per well of 5% BSA in 0.1% Tween PBS. After washing, 100 μl of 1:200-diluted serum samples in 5% BSA-0.1% Tween PBS were added for additional 2 hours incubation. ELISA plates were then washed 3 times with 0.1% Tween PBS followed by probing with anti-human IgG horse radish peroxidase conjugated (HRP, Sigma) at 1:1,000 dilution in 5% BSA-0.1% Tween PBS for another 1.5 hours incubation. The ELISA plates were washed, and 100 μg/ml TMB substrate in 0.1M sodium acetate pH 6.0 plus 2 μl/10 ml of H2O2, were added. Subsequently, the reaction was stopped with 20% v/v sulphuric acid. The optical density (O.D.) was measured at 450 nm using a GENios plate reader and Magellan software (TECAN, Dorset, UK).

| Substance | CD8+ T-cell response, subjects with SI > 1 (%) (CD8+ T-cells (PBMCs); Controls (N = 11)) | CD8+ T-cell response, subjects with SI > 3 (%) (CD8+ T-cells (PBMCs); Controls (N = 11)) | CD8+ T-cell response, subjects with SI > 5 (%) (CD8+ T-cells (PBMCs); Controls (N = 11)) | CD8+ T-cell response, subjects with SI > 10 (%) (CD8+ T-cells (PBMCs); Controls (N = 11)) | CD8+ T-cell response, subjects with SI > 1 (%) (CD8+ T-cells (PBMCs); Type 1 diabetes (N = 18)) | CD8+ T-cell response, subjects with SI > 3 (%) (CD8+ T-cells (PBMCs); Type 1 diabetes (N = 18)) | CD8+ T-cell response, subjects with SI > 5 (%) (CD8+ T-cells (PBMCs); Type 1 diabetes (N = 18)) | CD8+ T-cell response, subjects with SI > 10 (%) (CD8+ T-cells (PBMCs); Type 1 diabetes (N = 18)) | CD4+ T-cell response, subjects with SI > 1 (%) (CD4+ T-cells (PBMCs); Controls (N = 11)) | CD4+ T-cell response, subjects with SI > 3 (%) (CD4+ T-cells (PBMCs); Controls (N = 11)) | CD4+ T-cell response, subjects with SI > 5 (%) (CD4+ T-cells (PBMCs); Controls (N = 11)) | CD4+ T-cell response, subjects with SI > 10 (%) (CD4+ T-cells (PBMCs); Controls (N = 11)) | CD4+ T-cell response, subjects with SI > 1 (%) (CD4+ T-cells (PBMCs); Type 1 diabetes (N = 18)) | CD4+ T-cell response, subjects with SI > 3 (%) (CD4+ T-cells (PBMCs); Type 1 diabetes (N = 18)) | CD4+ T-cell response, subjects with SI > 5 (%) (CD4+ T-cells (PBMCs); Type 1 diabetes (N = 18)) | CD4+ T-cell response, subjects with SI > 10 (%) (CD4+ T-cells (PBMCs); Type 1 diabetes (N = 18)) | % binders, Healthy controls (serum IgG autoantibodies) | Mean ± SEM (absorbance, OD), Healthy controls (serum IgG autoantibodies) | % binders, Type 1 diabetes (serum IgG autoantibodies) | Mean ± SEM (absorbance, OD), Type 1 diabetes (serum IgG autoantibodies) |
| --- | --- | --- | --- | --- | --- | --- | --- | --- | --- | --- | --- | --- | --- | --- | --- | --- | --- | --- | --- | --- |
| ERGYYYTPKT (Ac-ERGYYYTPKT) [in silico designed oxPTM-INSP-6 derivative] | (27.3%) | (18.2%) | (18.2%) | (9.1%) | (22.2%) | (11.1%) | (11.1%) | (5.6%) | (36.4%) | (18.2%) | (9.1%) | (0.0%) | (50.0%) | (22.2%) | (0.0%) | (0.0%) | 25% | 0.351 ± 0.044 | 100% | 0.556 ± 0.031 |
| ERGYYYTPKTR (Ac-ERGYYYTPKTR) [oxPTM-INSP-6 version with a C-terminal arginine] | (18.2%) | (9.10%) | (9.1%) | (9.1%) | (55.6%) | (16.7%) | (16.7%) | (16.7%) | (63.6%) | (27.3%) | (0.0%) | (0.0%) | (72.2%) | (38.9%) | (15.8%) | (16.7%) | 48% | 0.423 ± 0.039 | 88% | 0.697 ± 0.058 |
| SL-DOPA-QLEN-DOPA-Cysteate-N (SL[Dopa]QLEN[Dopa][Cya]N) [in silico designed oxPTM-INSP-3 derivative] | (18.2%) | (9.10%) | (0.0%) | (0.0%) | (33.3%) | (16.7%) | (5.5%) | (5.6%) | (27.3%) | (0.0%) | (0.0%) | (0.0%) | (66.7%) | (5.6%) | (0.0%) | (0.0%) | 30% | 0.169 ± 0.008 | 57% | 0.256 ± 0.018 |
| SL-DOPA-QLENY-Cysteate-N (SL[Dopa]QLENY[Cya]N) [in silico designed oxPTM-INSP-3 derivative] | (36.4%) | (27.3%) | (27.3%) | (18.2%) | (44.4%) | (27.8%) | (16.7%) | (5.6%) | (54.5%) | (18.2%) | (18.2%) | (0.0%) | (50.0%) | (16.7%) | (10.5%) | (5.6%) | 17% | 0.154 ± 0.006 | 54% | 0.228 ± 0.016 |

— patent US20260072027A1, “Peptides And Method” (Queen Mary University of London, priority 2022, published 2026)
